Structures are written as SMILES.

This experiment has as its system Hartley-type male guinea pigs. The experiment can be described thus: Guinea Pig Homogeneous Skin Passive Anaphylaxis Assay (PCA reaction). Format: in vivo, guinea pig (Hartley-type). The following applies: Cavia porcellus, 10 mg/kg oral, 48 h after sensitization, read-out: Allergic reaction inhibitory index (%). The gist of the method: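 Male Hartley guinea pigs (250~300 g) given intradermal back injections of 120-fold-diluted anti-OVA serum; 48 h later test substance dosed orally at 10 mg/kg, then challenged i.v. with OVA plus Evans Blue. Dye-spot area (long × short diameter, mm^2) measured at 30 min; inhibition % calculated against solvent control.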
Turning to `CC(C)=CCC/C(C)=C/COc1c(OC/C=C(\C)CCC=C(C)C)c2cccc(OC(C)C)c2oc1=O` [Compound 142, 3,4-(digeranyloxy)-8-(isopropoxy)-2H-1-benzopyran-2-one], the inhibition in vivo at 10 mg/kg was determined as 31%. With `CC(C)=CCC/C(C)=C/COc1c(OC(=O)c2ccccc2)c(=O)oc2cccc(O)c12` [Compound 190, 3-(benzoyloxy)-4-(geranyloxy)-5-hydroxy-2H-1-benzopyran-2-one] the figure was 31%; with `CCCCCCCCCCOc1ccc2c(OC)c(OC/C=C(\C)CCC=C(C)C)c(=O)oc2c1` [Compound 71, 3-(geranyloxy)-4-(methoxy)-7-(decyloxy)-2H-1-benzopyran-2-one], 30%; with `CCCCCCCCCCOc1cccc2c(O)c(OC(=O)c3ccccc3)c(=O)oc12` [Compound 143, 3-(benzoyloxy)-4-hydroxy-8-(decyloxy)-2H-1-benzopyran-2-one], 30%. Turning to `CCCCCCCCCCOc1c(O)c(=O)oc2ccc(OC)cc12` [Compound 276, 3-(hydroxy)-4-(decyloxy)-6-(methoxy)-2H-1-benzopyran-2-one], the inhibition in vivo at 10 mg/kg is 34%. With `COc1ccc2c(OC/C=C(\C)CCC=C(C)C)c(OC/C=C(\C)CCC=C(C)C)c(=O)oc2c1` [Compound 43, 3,4-(digeranyloxy)-7-(methoxy)-2H-1-benzopyran-2-one] the figure was 30%; with `CC(=O)Oc1c(O)c2cc(O)ccc2oc1=O` [Compound 264, 3-(acetoxy)-4,6-(dihydroxy)-2H-1-benzopyran-2-one], 36%; with `CCCCCCCCCCOc1ccc2c(OC(C)=O)c(O)c(=O)oc2c1` [Compound 60, 3-hydroxy-4-(acetoxy)-7-(decyloxy)-2H-1-benzopyran-2-one], 35%. Consider `CC(=O)Oc1c(OC(C)=O)c2cccc(OC(C)=O)c2oc1=O` [Compound 95, 3,4,8-(triacetoxy)-2H-1-benzopyran-2-one], for which the inhibition in vivo at 10 mg/kg came to 30%. With `CC(=O)Oc1c(OC/C=C(\C)CCC=C(C)C)c(=O)oc2cc(OC/C=C(\C)CCC=C(C)C)ccc12` [Compound 85, 3,7-(digeranyloxy)-4-(acetoxy)-2H-1-benzopyran-2-one] the figure was 33%. The figure for `CC(C)=CCC/C(C)=C/COc1c(O)c2cccc(OC(C)C)c2oc1=O` [Compound 138, 3-(geranyloxy)-4-hydroxy-8-(isopropoxy)-2H-1-benzopyran-2-one] is 35%. With `CCCCCCCCCCOc1c(OC(C)C)c2c(OC/C=C(\C)CCC=C(C)C)cccc2oc1=O` [Compound 250, 3-(decyloxy)-4-(isopropoxy)-5-(geranyloxy)-2H-1-benzopyran-2-one] the figure was 31%; with `CC(C)=CCC/C(C)=C/COc1ccc2c(O)c(O)c(=O)oc2c1` [Compound 75, 3,4-(hydroxy)-7-(geranyloxy)-2H-1-benzopyran-2-one], 45%; with `CC(=O)Oc1c(OC(=O)c2ccccc2)c(=O)oc2cc(OC/C=C(\C)CCC=C(C)C)ccc12` [Compound 77, 3-(benzoyloxy)-4-(acetoxy)-7-(geranyloxy)-2H-1-benzopyran-2-one], 31%.

On to `CCCCCCCCCCOc1cccc2c(OC)c(OC/C=C(\C)CCC=C(C)C)c(=O)oc12` [Compound 155, 3-(geranyloxy)-4-(methoxy)-8-(decyloxy)-2H-1-benzopyran-2-one], for which the inhibition in vivo at 10 mg/kg amounted to 30%. The figure for `CCCCCCCCCCOc1c(OC(C)=O)c(=O)oc2cc(O)ccc12` [Compound 12, 3-(acetoxy)-4-(decyloxy)-7-hydroxy-2H-1-benzopyran-2-one] is 30%. As for `COc1ccc2c(OC)c(O)c(=O)oc2c1` [Compound 33, 3-hydroxy-4,7-(dimethoxy)-2H-1-benzopyran-2-one], the inhibition in vivo at 10 mg/kg was found to be 33%.

Turning to `COc1ccc2oc(=O)c(OC(C)=O)c(O)c2c1` [Compound 278, 3-(acetoxy)-4-(hydroxy)-6-(methoxy)-2H-1-benzopyran-2-one], the inhibition in vivo at 10 mg/kg came to 36%.

As for `CC(=O)Oc1c(OC(C)C)c2cccc(O)c2oc1=O` [Compound 100, 3-(acetoxy)-4-(isopropoxy)-8-hydroxy-2H-1-benzopyran-2-one], the inhibition in vivo at 10 mg/kg worked out at 30%.

`CC(C)=CCC/C(C)=C/COc1c(O)c(=O)oc2c(O)cccc12` [Compound 103, 3,8-(dihydroxy)-4-(geranyloxy)-2H-1-benzopyran-2-one]: the inhibition in vivo at 10 mg/kg came out at 30%. For `COc1c(O)c2cccc(OC)c2oc1=O` [Compound 115, 3,8-(dimethoxy)-4-hydroxy-2H-1-benzopyran-2-one], the inhibition in vivo at 10 mg/kg was 33%. With `CC(C)=CCC/C(C)=C/COc1ccc2c(OC/C=C(\C)CCC=C(C)C)c(O)c(=O)oc2c1` [Compound 84, 3-hydroxy-4,7-(digeranyloxy)-2H-1-benzopyran-2-one] the figure was 30%; with `CC(C)=CCC/C(C)=C/COc1c(O)c2c(OC(C)C)cccc2oc1=O` [Compound 219, 3-(geranyloxy)-4-hydroxy-5-(isopropoxy)-2H-1-benzopyran-2-one], 36%. With `CC(C)=CCC/C(C)=C/COc1c(OC/C=C(\C)CCC=C(C)C)c2c(O)cccc2oc1=O` [Compound 193, 3,4-(digeranyloxy)-5-hydroxy-2H-1-benzopyran-2-one] the figure was 30%; with `CC(C)=CCC/C(C)=C/COc1c(O)c(=O)oc2c(OC/C=C(\C)CCC=C(C)C)cccc12` [Compound 168, 3-hydroxy-4,8-(digeranyloxy)-2H-1-benzopyran-2-one], 34%. The figure for `COc1cccc2c(OC(C)=O)c(O)c(=O)oc12` [Compound 112, 3-hydroxy-4-(acetoxy)-8-(methoxy)-2H-1-benzopyran-2-one] is 32%; for `CCCCCCCCCCOc1c(O)c2ccc(O)cc2oc1=O` [Compound 16, 3-(decyloxy)-4,7-(dihydroxy)-2H-1-benzopyran-2-one] it is 40%. Consider `CC(C)Oc1cccc2oc(=O)c(O)c(O)c12` [Compound 211, 3,4-(dihydroxy)-5-(isopropoxy)-2H-1-benzopyran-2-one], for which the inhibition in vivo at 10 mg/kg worked out at 52%. For the molecule `CCCCCCCCCCOc1c(OC(=O)c2ccccc2)c2cccc(OC(C)C)c2oc1=O` [Compound 137, 3-(decyloxy)-4-(benzoyloxy)-8-(isopropoxy)-2H-1-benzopyran-2-one], the inhibition in vivo at 10 mg/kg was determined as 32%. The figure for `CC(=O)Oc1c(OC(=O)c2ccccc2)c(=O)oc2c(OC/C=C(\C)CCC=C(C)C)cccc12` [Compound 161, 3-(benzoyloxy)-4-(acetoxy)-8-(geranyloxy)-2H-1-benzopyran-2-one] is 31%; for `CCCCCCCCCCOc1c(OC)c2cccc(OC)c2oc1=O` [Compound 117, 3-(decyloxy)-4,8-(dimethoxy)-2H-1-benzopyran-2-one] it is 32%; for `CC(C)=CCC/C(C)=C/COc1c(OC(C)C)c2ccc(OC(C)C)cc2oc1=O` [Compound 55, 3-(geranyloxy)-4,7-(diisopropoxy)-2H-1-benzopyran-2-one] it is 33%.
